Earlier results, collected in US4081530A, “Extended chain derivatives of somatostatin” (Ayerst, McKenna & Harrison Limited, priority 1975, dated 1978).

Details: somatostatin-like activity

For “[Ala^3,14 ]-somatostatin (AGAKNFFWKTFTSA; Somatostatin-14; UniProt P61278 103-116, looked up, variant C3A C14A) [somatostatin analog synthesised by solid phase methods (Sarantakis et al.)]”, the “activity as share of somatostatin's potency” value is given as “about 0.01%”.
